The target in test [1] is PI3K-alpha (PIK3CA/PIK3R1) (Homo sapiens (Human), UniProt P42336). As to the kind of experiment: PI3K-alpha enzyme activity assay (ADP Glo). It is filed as biochemical. As to conditions: read-out: Activity of inhibiting PI3K enzyme IC50. The text has this: 3. PI3K-alpha Enzyme Activity Assay: PI3K alpha-ADP Glo Assay was employed. In the determination of PI3K enzyme activity, the detection kit supplied by Promega (Promega, Cat #: V9101) was used to detect the inhibition effect of the compounds on the activity of PI3K enzyme. The adenosine diphosphate produced during the whole enzymic reactions was quantified. The resulting values were used to calculate the activity of PI3K (Table 1).
PI3K-alpha (PIK3CA/PIK3R1), sequence (P42336 whole entry, looked up): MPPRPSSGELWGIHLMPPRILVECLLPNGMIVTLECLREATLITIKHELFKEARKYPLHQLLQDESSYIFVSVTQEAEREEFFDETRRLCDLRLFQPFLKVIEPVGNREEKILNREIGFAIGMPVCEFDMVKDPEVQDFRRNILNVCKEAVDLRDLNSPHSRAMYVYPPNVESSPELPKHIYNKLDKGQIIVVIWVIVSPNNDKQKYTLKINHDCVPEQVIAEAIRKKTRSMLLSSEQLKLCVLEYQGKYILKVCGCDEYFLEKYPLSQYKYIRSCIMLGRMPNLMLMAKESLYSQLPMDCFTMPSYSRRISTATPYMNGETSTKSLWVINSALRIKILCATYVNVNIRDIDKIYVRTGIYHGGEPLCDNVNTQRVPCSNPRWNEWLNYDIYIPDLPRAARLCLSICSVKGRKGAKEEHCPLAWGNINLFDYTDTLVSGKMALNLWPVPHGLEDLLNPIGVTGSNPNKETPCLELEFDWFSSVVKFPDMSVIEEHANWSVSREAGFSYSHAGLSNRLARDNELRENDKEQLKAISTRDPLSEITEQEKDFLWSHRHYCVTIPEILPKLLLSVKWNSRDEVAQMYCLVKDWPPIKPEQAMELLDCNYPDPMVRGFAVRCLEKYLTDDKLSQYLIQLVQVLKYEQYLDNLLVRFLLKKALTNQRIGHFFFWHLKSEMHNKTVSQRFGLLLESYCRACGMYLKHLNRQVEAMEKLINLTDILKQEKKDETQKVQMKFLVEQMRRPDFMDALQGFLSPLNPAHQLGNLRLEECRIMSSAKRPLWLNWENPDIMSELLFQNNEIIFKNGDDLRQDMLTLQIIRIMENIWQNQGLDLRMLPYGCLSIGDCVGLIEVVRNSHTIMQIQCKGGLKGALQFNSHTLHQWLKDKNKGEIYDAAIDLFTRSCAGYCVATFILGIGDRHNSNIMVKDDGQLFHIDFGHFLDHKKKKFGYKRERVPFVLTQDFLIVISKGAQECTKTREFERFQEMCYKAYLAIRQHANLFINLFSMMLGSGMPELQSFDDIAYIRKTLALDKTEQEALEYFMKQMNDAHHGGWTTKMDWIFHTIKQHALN
PI3K-alpha (PIK3CA/PIK3R1), sequence (P27986 whole entry partner, looked up): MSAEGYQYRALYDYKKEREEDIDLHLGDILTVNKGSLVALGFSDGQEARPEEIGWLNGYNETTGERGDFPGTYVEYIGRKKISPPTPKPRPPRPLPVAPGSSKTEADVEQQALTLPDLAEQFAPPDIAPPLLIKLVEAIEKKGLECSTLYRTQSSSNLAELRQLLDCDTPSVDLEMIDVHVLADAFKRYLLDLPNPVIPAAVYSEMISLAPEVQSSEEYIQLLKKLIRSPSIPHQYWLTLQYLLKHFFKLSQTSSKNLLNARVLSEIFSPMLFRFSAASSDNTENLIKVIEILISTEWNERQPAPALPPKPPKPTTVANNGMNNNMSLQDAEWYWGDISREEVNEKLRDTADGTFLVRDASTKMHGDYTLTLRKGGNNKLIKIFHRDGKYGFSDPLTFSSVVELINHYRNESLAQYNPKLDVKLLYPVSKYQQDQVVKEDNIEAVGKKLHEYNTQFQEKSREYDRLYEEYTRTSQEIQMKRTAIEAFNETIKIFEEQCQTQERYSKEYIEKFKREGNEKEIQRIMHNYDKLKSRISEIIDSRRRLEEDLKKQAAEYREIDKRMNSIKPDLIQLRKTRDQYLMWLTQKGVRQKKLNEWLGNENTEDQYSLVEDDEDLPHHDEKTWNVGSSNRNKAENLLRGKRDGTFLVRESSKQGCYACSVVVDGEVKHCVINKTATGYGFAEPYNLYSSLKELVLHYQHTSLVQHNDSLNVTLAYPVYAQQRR
3.1 Detection reagents: PIK3CA/PIK3R1 purchased from Invitrogen (Cat #: PV4788): The active kinase was diluted with kinase diluent III; and mixed with bovine serum albumin (BSA) in a ratio of 1:4 (5×dilution). The final BSA concentration was 50 ng/ml; and the compositions of Kinase Detection Solution I were: 25 mM MOPS, pH7.2, 12.5 mM β-glycerophosphate, 25 mM magnesium chloride, 5 mM EGTA, and 2 mM EDTA. Before use, 0.25 mM DTT was added to Kinase Detection Solution I; 250 μM adenosine triphosphate (ATP) Detection solution: 0.55 mg of ATP was dissolved in 4 ml of Kinase Detection Solution I, subdivided in 200 μl/vial and stored at −20° C. Substrate: Phosphatidylinositol (4,5) bis-phosphate; this substrate was diluted with Kinase Detection Solution I to a concentration of 125 μM. Final concentrations were: 10 μM PIP2, 10 μM ATP, 1% DMSO, and 0.0005-10 μM compounds.
a) Experimental Procedure: • 3.2.1 50 μL of the compounds diluted with dimethyl sulfoxide (DMSO) at a concentration of 100 μM were added to the 384-well dilution plate. The compounds were diluted with dimethyl sulfo de (DMSO) in a ratio of 1:3 (10 dilution concentrations plus 1 zero concentration). • 3.2.2 5 μL of the diluted compounds were transferred to the corresponding 384-well black Proxi plate (containing 47.5 μL of detection solution/well), and shaked for several seconds. • 3.2.3 2 μL of 2.5×PI3K working solution was added to 384-well black Proxi plate. • 3.2.4 2 μL of the diluted compounds were added to the detection plate (3 wells for each concentration). • 3.2.5 The plate was incubated at room temperature for 2 h. • 3.2.6 5 μL of ADP Glo Reagent was added. • 3.2.7 The plate was incubated at room temperature for 40 minutes. • 3.2.8 10 μL of the kinase detection reagent was added. • 3.2.9 The plate was incubated at room temperature for 40 minutes. • 3.2.10 The activity was detected by using Envision Reader.
The inhibition of the mTOR […] activity by the compounds ranges in 0.5 to several hundreds nanomoles, see Table 1.
A general note: In ADP-Glo the light output rises with the ADP produced.

Another test concerns the target mTOR kinase (Homo sapiens (Human), UniProt P42345). As to the kind of experiment: mTOR kinase activity assay (TR-FRET, GFP-4EBP1 substrate). In kind it is biochemical. The following applies: read-out: Enzyme (mTOR) IC50. (In general: TR-FRET usually uses a lanthanide donor and a delayed reading to cut background.)

pIC50: −log10 of the molar value.

mTOR kinase, sequence (P42345 1360-2549): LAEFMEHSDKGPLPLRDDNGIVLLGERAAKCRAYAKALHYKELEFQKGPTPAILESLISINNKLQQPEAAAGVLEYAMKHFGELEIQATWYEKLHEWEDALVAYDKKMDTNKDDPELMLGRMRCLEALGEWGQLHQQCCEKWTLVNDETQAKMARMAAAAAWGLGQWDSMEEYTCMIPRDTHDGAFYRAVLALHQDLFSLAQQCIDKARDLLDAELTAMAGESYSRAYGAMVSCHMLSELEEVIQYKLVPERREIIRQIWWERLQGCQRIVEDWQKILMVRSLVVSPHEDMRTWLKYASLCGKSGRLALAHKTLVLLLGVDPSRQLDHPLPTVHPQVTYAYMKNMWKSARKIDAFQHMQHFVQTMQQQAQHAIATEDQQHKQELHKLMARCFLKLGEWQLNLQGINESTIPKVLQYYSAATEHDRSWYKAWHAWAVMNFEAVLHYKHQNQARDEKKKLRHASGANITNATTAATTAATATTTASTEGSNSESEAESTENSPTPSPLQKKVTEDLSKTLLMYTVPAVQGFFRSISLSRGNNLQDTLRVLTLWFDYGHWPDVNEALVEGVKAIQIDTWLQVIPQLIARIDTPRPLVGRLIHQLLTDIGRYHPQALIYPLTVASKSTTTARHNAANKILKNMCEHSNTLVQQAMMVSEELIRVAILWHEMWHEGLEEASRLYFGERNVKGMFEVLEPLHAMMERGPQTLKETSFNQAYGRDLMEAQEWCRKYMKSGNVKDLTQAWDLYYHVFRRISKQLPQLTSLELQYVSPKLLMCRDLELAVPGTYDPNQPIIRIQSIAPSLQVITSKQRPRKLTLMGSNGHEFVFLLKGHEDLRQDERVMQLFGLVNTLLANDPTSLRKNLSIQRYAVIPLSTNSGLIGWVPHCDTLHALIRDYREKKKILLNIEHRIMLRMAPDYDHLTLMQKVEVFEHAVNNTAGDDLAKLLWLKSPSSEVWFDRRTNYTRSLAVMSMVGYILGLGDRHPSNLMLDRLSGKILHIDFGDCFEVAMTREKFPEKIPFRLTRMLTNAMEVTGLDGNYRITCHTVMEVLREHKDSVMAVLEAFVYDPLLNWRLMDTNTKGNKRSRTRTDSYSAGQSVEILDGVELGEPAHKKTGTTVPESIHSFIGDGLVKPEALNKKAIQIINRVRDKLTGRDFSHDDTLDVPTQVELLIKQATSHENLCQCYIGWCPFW

For the compound `Cn1cc(-c2ccc(-c3ccc4ncc5c(c4c3)n(C3CCCN(S(C)(=O)=O)C3)c(=O)n5C)cn2)cn1` (centres unmarked) [Example 3, 3-methyl-8-(6-(1-methyl-1H-pyrazol-4-yl)pyridin-3-yl)-1-(1-(methanesulfonyl)piperidin-3-yl)-1H-imidazo[4,5-c]quinolin-2(3H)-one], the pIC50 (in test [1]; at mTOR kinase) was more than 8.00 in each case.
Consider `Cn1cc(-c2ccc(-c3ccc4ncc5c(c4c3)n([C@H]3CC[C@@H](O)CC3)c(=O)n5C)cn2)cn1` [Example 18, 1-((1s,4s)-4-hydroxycyclohexyl)-3-methyl-8-(6-(1-methyl-1H-pyrazol-4-yl)pyridin-3-yl)-1H-imidazo[4,5-c]quinolin-2(3H)-one], for which the negative-log IC50 (pIC50) (in test [1]; at mTOR kinase) was more than 8.00 throughout.
As to `Cn1cc(-c2ccc(-c3ccc4ncc5c(c4c3)n([C@H]3CCN(S(C)(=O)=O)C3)c(=O)n5C)cn2)cn1` [Example 28, (S)-3-methyl-8-(6-(1-methyl-1H-pyrazol-4-yl)pyridin-3-yl)-1-(1-(methanesulfonyl)pyrrolidin-3-yl)-1H-imidazo[4,5-c]quinolin-2(3H)-one], the pIC50 (in test [1]; on mTOR kinase) was more than 8.00 each time.
For `Cn1cc(-c2ccc(-c3ccc4ncc5c(c4c3)n([C@@H]3CCCN(S(C)(=O)=O)C3)c(=O)n5C)cn2)cn1` [Example 31, (R)-3-methyl-8-(6-(1-methyl-1H-pyrazol-4-yl)pyridin-3-yl)-1-(1-(methanesulfonyl)piperidin-3-yl)-1H-imidazo[4,5-c]quinolin-2(3H)-one], the pIC50 (in test [1]; at mTOR kinase) was more than 8.00 in each case.

Values taken from patent publication US10047084B2, “Imidazolone derivatives, pharmaceutical compositions and uses thereof” (BEIJING FORELANDPHARMA CO. LTD., priority 2013, dated 2018).
